According to patent publication US20080009546A1 (Chevron U.S.A. Inc., priority 2005, published 2008):
Where two headings read alike, the source gives them in different places.

Legend:
NMDA receptor [1] = assay: [3H]MK-801 binding assay, NMDA receptors in guinea pig brain membranes
Protocol: Hartley guinea pigs were sacrificed, and their brains were quickly removed and weighed. The brains then were homogenized in 50 mM Tris HCl buffer, pH 7.7, using a Polytron homogenizer. The homogenate was centrifuged at 40,000×g for 15 min, rehomogenized, and centrifuged again. The final pellet was resuspended in Tris-HCl, pH 7.7, at a final concentration of 6.67 mg original wet weight of tissue/ml. […] The samples were then filtered through glass fiber filters on a Tomtec cell harvester. The filters were washed 3 times with 3 ml of cold buffer. Filters were dried overnight and counted next day on a Wallac Betaplate Reader.
The binding experiments were conducted as follows. […] For each compound, graphs were prepared containing individual competition curves obtained for that compound. IC50 values and Hill coefficients were calculated using the program Prism. Ki values were calculated using the Chang Prusoff transformation: Ki=IC50/(1+L/Kd)
where L is radioligand concentration and Kd is the binding affinity of the radioligand, as determined previously by saturation analysis. […] In each experiment, one standard compound was simultaneously run on each 96 well plate.

C57/BL6 male mice [2] = assay: Pentylenetetrazol (PTZ)-induced seizure/death model; assay type: in vivo, mouse; conditions: for # of deaths within 30 min: 6 mice; for # of deaths within 30 min / PTZ-induced death: PTZ 100 mg/kg; for PTZ-induced death: 30 min observation
Protocol: Although the protection against death is the key endpoint, other effects of the compounds on PTZ-induced seizures were also assessed using multiple parameters. For the mice that did die within the 30 minute observation window, the time of death was also compared. […] The seizure occurrence rate, onset time and number of level 3 (L3) seizure (repetitive seizures but the animal can still stand) and level 4 (L4) seizure (repetitive seizures and the animal loses righting) are also analyzed. The MDT compound (30 mg/kg) treated groups show a certain degree of improvement compared to control. No data from MK801 or memantine were included because the seizures occurring under these treatments are totally different from the control or MDT injected groups due to side effects (“high jumping”).

NMDA receptor [3] = assay: Whole-cell voltage-clamp recordings of NMDA evoked currents in hypocretin neurons (hypothalamic slices); assay type: cell-based, mouse
C57/BL6 male mice [4] = assay: Rotarod test (balance and coordination, side effects); conditions: mouse, in vivo
Protocol: The side effects of the compounds was primarily evaluated using the rotarod test, which mainly assesses the balancing and coordination of mice. The comparisons were made on fall time of the mice between the first measure (pre-treatment) and second measure taken 20 min after the drug/vehicle injection in the same group (paired t-test). […] Comparisons of the rotatod fall times after drug/vehicle dosing were made between drug treatment and control groups (unpaired t-test).

C57/BL6 male mice [5] = test system: C57/BL6 male mice

**Q.** For `CC12CC3CC(C)(C1)CC(N)(C3)C2` [memantine, 1-amino-3,5-dimethyladamantane, reference compound], which Ki (NMDA receptor [1]; [3H]MK-801 (1 nM), guinea pig brain membrane preparation, read-out: Ki (binding affinity)) is on record?
**A.** 730 nM

**Q.** And the Relative affinity (NMDA receptor [1]; compared to that of Memantine)?
**A.** 1 ^

**Q.** And the Ki (NMDA receptor [1]; standard compounds at the NMDA site (Table 27), read-out: Ki)?
**A.** 733 ± 130 nM

**Q.** What about the Mortality rate (C57/BL6 male mice [2]; 10 mg/kg i.p.) of the same compound?
**A.** 0.17

**Q.** What about the “# of deaths within 30 min” value (C57/BL6 male mice [2]; 10 mg/kg i.p.) of the same compound?
**A.** 1

**Q.** What about the Mortality rate (C57/BL6 male mice [2]; 30 mg/kg i.p.) of the same compound?
**A.** 0

**Q.** And the “# of deaths within 30 min” value (C57/BL6 male mice [2]; 30 mg/kg i.p.)?
**A.** 0

**Q.** What about the PTZ-induced death (C57/BL6 male mice [2]; 10 and 30 mg/kg i.p.) of the same compound?
**A.** dose-dependent reduction in death

**Q.** What about the PTZ-induced death (C57/BL6 male mice [2]; high dose 30 mg/kg i.p.) of the same compound?
**A.** full protection

**Q.** What about the “reversibility of inhibition of NMDA evoked currents upon washout” value (NMDA receptor [3]) of the same compound?
**A.** reversible

**Q.** What about the “inhibition of the peak amplitude of NMDA evoked currents” value (NMDA receptor [3]; 10 µM) of the same compound?
**A.** 41.3±10%

**Q.** And the “inhibition of the peak amplitude of NMDA evoked currents” value (NMDA receptor [3]; 30 µM)?
**A.** 52.7±7.4%

**Q.** What about the “rotarod fall time, pre-treatment vs 20 min after injection” value (C57/BL6 male mice [4]) of the same compound?
**A.** loss of performance

**Q.** What about the “hyperactivity (side effect)” value (C57/BL6 male mice [4]; ip, 30 mg/kg) of the same compound?
**A.** observed

**Q.** What about the “rotarod performance after dosing vs. control” value (C57/BL6 male mice [4]; ip, 30 mg/kg) of the same compound?
**A.** statistically significant decreases in rotarod performance

**Q.** And the Extension rate (C57/BL6 male mice [5]; 10 mg/kg i.p.)?
**A.** 0.67

**Q.** And the Mortality rate (C57/BL6 male mice [5]; 10 mg/kg i.p.)?
**A.** 0

**Q.** And the “# of deaths” value (C57/BL6 male mice [5]; 10 mg/kg i.p., 6 mice)?
**A.** 0

**Q.** What about the “# of extensions” value (C57/BL6 male mice [5]; 10 mg/kg i.p., 6 mice) of the same compound?
**A.** 4

**Q.** And the MES-induced death (C57/BL6 male mice [5]; low dose 10 mg/kg i.p., mice)?
**A.** protected all mice from death
